{
  "source": "ChEMBL document CHEMBL1201862",
  "about": "“PubChem BioAssay data set” (2004)",
  "key": {"[1]": {"molecular_target": "Type-1 angiotensin II receptor (Homo sapiens, UniProt P30556)", "sequence (P30556 whole entry, the tested form may be a part)": "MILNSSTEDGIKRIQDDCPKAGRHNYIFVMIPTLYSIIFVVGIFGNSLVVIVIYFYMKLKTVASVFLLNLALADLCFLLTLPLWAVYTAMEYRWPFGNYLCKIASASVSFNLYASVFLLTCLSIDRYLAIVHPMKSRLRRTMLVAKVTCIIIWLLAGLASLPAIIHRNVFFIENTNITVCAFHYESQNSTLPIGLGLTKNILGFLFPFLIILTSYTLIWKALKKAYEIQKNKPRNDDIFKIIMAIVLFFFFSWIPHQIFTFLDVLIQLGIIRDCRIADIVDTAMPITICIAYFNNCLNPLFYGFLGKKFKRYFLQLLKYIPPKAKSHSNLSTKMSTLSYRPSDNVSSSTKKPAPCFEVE", "assay": "AT1 receptor agonists, dose response, selectivity assay for APJ receptor agonist project, cell-based, uHTS hits (AID 488865);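 also: beta-arrestin recruitment to AT1 measured by enzyme fragment complementation luminescence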", "assay_type": "functional"}, "Cytochrome P450 2C19": {"molecular_target": "Cytochrome P450 2C19 (Homo sapiens, UniProt P33261)", "sequence (P33261 whole entry)": "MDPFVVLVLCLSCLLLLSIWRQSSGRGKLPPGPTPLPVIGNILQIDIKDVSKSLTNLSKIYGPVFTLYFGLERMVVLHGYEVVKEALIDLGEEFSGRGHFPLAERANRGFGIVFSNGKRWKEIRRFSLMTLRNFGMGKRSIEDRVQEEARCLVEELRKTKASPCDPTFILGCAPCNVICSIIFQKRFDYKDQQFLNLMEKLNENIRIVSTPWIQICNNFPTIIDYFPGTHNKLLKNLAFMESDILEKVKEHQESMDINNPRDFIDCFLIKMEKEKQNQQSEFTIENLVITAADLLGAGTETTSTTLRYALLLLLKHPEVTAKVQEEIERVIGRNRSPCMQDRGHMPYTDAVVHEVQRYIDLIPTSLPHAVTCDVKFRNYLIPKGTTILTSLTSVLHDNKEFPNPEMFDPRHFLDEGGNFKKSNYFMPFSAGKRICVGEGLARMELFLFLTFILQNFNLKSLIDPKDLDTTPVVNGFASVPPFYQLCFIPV", "assay": "Cytochrome panel assay with activity outcomes. Panel member name: p450-cyp2c19 Compounds with AC50 equal or less than 10 uM are considered active", "assay_type": "functional", "settings": "read-out: AC50"}, "Cytochrome P450 3A4": {"molecular_target": "Cytochrome P450 3A4 (Homo sapiens, UniProt P08684)", "sequence (P08684 whole entry)": "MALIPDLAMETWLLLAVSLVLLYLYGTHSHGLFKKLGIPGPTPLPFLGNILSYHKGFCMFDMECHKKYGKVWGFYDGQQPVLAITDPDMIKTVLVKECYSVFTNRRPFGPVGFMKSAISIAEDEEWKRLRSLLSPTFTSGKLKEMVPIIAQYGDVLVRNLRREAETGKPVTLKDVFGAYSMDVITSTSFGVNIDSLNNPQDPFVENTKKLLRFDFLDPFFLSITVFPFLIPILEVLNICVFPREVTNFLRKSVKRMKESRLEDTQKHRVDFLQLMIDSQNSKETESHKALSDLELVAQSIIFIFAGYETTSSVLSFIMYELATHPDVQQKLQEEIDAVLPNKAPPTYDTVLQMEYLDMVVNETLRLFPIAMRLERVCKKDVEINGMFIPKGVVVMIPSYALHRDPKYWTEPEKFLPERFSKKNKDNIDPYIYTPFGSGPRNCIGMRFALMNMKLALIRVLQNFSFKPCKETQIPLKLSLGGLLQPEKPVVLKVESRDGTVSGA"}, "[2]": {"assay": "THP-1 cell cytotoxicity, dose response, cytotoxicity control for non-replicating M. tuberculosis project (AID 489025)", "assay_type": "functional"}, "[3]": {"assay": "Vero E6 cell cytotoxicity, dose response, cytotoxicity control for non-replicating M. tuberculosis project, secondary assay (AID 492998)", "assay_type": "functional, VeroE6", "settings": "Vero C1008"}, "cells": {"assay": "cells", "assay_type": "functional"}, "[4]": {"molecular_target": "T1, G-protein coupled receptor 35 (Homo sapiens, UniProt Q9HC97)", "T1 sequence (Q9HC97 whole entry)": "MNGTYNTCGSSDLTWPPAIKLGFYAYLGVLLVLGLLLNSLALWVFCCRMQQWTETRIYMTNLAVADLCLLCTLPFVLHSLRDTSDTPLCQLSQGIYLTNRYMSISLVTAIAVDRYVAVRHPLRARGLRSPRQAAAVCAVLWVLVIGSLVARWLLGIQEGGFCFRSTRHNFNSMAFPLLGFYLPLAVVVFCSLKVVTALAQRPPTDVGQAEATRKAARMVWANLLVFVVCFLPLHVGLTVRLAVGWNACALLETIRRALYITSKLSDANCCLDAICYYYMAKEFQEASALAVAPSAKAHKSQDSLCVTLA", "assay": "GPR35 antagonists blocking zaprinast-driven arrestin recruitment, primary screen, imaging, U2OS, beta-arrestin-GFP, zaprinast agonist (AID 2058);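 also: antagonist potency meaning inhibition of agonist-induced arrestin redistribution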", "assay_type": "functional"}, "[5]": {"molecular_target": "T1, G-protein coupled receptor 35", "assay": "SAR Analysis for the identification of Selective Antagonists of ERK1/2 Activity in GPR35-Overexpressing U2OS Cells. [Related pubchem assays: 2079, 2058 ]", "assay_type": "functional, cell-based"}, "[6]": {"molecular_target": "Tyrosine-protein phosphatase non-receptor type 12 (Homo sapiens, UniProt Q05209)", "assay": "SAR Selectivity Analysis of small molecule inhibitors of PEST using pCAP in a fluorescence assay. [Related pubchem assays (depositor defined):AID1779, AID1784, AID2135]", "assay_type": "functional"}, "[7]": {"molecular_target": "T2, Tyrosine-protein phosphatase non-receptor type 22 (Homo sapiens, UniProt Q9Y2R2)", "T2 sequence (Q9Y2R2 whole entry)": "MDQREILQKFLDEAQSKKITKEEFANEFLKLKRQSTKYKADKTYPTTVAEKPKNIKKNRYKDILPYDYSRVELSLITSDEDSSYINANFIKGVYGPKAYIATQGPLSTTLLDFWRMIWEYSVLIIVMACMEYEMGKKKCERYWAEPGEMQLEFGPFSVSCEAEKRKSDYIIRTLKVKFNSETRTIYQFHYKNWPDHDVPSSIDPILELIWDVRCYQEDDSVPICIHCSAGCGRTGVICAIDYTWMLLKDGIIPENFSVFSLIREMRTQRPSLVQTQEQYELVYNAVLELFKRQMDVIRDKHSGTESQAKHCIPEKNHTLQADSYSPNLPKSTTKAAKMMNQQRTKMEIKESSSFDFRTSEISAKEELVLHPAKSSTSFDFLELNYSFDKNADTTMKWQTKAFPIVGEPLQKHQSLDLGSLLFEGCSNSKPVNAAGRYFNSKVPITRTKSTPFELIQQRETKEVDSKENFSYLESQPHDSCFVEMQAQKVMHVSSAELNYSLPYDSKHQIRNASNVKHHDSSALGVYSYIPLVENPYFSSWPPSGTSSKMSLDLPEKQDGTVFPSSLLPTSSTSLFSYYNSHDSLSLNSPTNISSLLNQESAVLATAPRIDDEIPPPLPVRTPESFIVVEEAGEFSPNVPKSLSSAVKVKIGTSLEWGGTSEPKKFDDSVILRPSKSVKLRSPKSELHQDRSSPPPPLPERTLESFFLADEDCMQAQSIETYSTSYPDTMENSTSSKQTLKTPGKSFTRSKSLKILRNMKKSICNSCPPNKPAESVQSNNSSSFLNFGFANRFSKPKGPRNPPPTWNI", "assay": "SAR LYP1 Fluorescent Assay using OMFP substrate for In Vitro dose response studies - Set 3. [Related pubchem assays (depositor defined):AID1779, AID1784, AID2140, AID2686]", "assay_type": "functional"}, "[8]": {"molecular_target": "T3, Tyrosine-protein phosphatase non-receptor type 7 (Homo sapiens, UniProt P35236)", "T3 sequence (P35236 whole entry)": "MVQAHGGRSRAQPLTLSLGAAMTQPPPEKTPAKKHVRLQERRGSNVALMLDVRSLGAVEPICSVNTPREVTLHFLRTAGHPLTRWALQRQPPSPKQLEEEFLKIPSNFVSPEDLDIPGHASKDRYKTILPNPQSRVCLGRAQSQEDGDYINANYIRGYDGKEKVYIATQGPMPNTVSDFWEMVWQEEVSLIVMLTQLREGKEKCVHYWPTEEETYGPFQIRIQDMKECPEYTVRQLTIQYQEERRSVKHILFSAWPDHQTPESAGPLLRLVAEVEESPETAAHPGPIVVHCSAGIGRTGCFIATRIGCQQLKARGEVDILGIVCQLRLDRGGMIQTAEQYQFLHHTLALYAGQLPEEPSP", "assay": "HePTP (PTPN7) phosphatase inhibitor potency, SAR follow-up, biochemical, set 2 (AID 449736)", "assay_type": "functional"}, "[9]": {"molecular_target": "T2, Tyrosine-protein phosphatase non-receptor type 22", "assay": "LYP (PTPN22) phosphatase inhibitor potency, SAR follow-up, biochemical, pCAP fluorogenic substrate, fluorescence, set 3 (AID 449727)", "assay_type": "functional"}, "[10]": {"molecular_target": "G-protein coupled receptor 55 (Homo sapiens, UniProt Q9Y2T6)", "sequence (Q9Y2T6 whole entry)": "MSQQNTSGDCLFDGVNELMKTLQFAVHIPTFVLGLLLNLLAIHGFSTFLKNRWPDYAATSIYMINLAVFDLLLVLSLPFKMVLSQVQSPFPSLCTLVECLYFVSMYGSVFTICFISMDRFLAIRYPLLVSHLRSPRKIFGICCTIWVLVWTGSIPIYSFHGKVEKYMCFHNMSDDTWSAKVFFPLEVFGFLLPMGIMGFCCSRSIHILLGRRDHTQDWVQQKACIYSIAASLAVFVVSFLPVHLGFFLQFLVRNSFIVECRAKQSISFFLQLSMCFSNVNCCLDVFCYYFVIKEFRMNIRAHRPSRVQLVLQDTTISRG", "assay": "GPR55 antagonists, SAR follow-up, counter-screen for GPR35 antagonist project, imaging, image-based (AID 2397)", "assay_type": "functional"}, "SUMO-activating enzyme [11]": {"molecular_target": "T4, SUMO-activating enzyme (Homo sapiens, UniProt Q9UBT2)", "T4 sequence (Q9UBE0 whole entry)": "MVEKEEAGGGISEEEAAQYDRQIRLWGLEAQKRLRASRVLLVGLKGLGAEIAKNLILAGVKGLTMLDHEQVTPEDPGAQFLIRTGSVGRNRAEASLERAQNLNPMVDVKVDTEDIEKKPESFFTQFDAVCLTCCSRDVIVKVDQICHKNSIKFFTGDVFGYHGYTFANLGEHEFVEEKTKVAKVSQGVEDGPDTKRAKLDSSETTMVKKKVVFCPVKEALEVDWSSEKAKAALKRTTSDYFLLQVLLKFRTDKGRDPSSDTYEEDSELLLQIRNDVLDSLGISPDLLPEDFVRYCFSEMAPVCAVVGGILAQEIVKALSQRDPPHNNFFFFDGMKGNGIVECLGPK", "T4 sequence (Q9UBT2 whole entry)": "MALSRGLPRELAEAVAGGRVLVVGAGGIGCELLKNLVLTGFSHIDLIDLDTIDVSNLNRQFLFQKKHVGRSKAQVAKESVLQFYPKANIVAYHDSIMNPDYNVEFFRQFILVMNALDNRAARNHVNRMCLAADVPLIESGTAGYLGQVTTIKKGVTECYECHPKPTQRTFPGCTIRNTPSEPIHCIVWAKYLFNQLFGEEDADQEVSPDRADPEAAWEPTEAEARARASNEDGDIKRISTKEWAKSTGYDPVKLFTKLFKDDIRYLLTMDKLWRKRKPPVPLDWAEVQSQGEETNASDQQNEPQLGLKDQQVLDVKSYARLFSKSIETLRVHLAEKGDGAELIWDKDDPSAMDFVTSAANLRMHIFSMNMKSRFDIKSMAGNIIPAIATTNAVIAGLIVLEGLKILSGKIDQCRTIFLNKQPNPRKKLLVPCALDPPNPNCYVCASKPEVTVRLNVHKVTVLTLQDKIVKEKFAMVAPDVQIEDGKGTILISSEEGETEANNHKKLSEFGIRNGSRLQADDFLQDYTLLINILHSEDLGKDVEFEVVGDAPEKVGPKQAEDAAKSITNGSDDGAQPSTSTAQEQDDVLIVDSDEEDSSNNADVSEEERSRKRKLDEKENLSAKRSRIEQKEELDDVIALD", "assay": "SUMOylation inhibitor hit validation, confirmation, SUMOylation inhibitor project, biochemical, AlphaScreen (AID 2018)", "assay_type": "functional"}, "SUMO-activating enzyme [12]": {"molecular_target": "T4, SUMO-activating enzyme", "assay": "inhibitors of in vitro SUMOylation cascade, primary screen, biochemical, HTRF, uHTS (AID 2006)", "assay_type": "protein-complex assay"}, "[13]": {"molecular_target": "T5, C-C chemokine receptor type 6 (Homo sapiens, UniProt P51684)", "T5 sequence (P51684 whole entry)": "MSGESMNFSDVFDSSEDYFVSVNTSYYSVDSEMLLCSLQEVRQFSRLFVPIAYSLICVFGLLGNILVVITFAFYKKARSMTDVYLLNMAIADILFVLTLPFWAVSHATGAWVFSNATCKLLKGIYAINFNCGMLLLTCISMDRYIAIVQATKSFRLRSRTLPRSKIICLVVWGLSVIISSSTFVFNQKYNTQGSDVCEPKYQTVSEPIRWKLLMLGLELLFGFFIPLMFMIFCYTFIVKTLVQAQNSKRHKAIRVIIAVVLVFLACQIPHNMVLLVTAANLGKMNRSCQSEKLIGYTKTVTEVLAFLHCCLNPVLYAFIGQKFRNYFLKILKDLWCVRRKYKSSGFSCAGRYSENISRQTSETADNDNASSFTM", "assay": "CCR6 receptor antagonists, dose response, cell-based, luminescent beta-arrestin readout (AID 504728)", "assay_type": "functional"}, "Beta-galactosidase": {"molecular_target": "Beta-galactosidase (Escherichia coli, UniProt Q8VNN2)", "sequence (Q8VNN2 whole entry)": "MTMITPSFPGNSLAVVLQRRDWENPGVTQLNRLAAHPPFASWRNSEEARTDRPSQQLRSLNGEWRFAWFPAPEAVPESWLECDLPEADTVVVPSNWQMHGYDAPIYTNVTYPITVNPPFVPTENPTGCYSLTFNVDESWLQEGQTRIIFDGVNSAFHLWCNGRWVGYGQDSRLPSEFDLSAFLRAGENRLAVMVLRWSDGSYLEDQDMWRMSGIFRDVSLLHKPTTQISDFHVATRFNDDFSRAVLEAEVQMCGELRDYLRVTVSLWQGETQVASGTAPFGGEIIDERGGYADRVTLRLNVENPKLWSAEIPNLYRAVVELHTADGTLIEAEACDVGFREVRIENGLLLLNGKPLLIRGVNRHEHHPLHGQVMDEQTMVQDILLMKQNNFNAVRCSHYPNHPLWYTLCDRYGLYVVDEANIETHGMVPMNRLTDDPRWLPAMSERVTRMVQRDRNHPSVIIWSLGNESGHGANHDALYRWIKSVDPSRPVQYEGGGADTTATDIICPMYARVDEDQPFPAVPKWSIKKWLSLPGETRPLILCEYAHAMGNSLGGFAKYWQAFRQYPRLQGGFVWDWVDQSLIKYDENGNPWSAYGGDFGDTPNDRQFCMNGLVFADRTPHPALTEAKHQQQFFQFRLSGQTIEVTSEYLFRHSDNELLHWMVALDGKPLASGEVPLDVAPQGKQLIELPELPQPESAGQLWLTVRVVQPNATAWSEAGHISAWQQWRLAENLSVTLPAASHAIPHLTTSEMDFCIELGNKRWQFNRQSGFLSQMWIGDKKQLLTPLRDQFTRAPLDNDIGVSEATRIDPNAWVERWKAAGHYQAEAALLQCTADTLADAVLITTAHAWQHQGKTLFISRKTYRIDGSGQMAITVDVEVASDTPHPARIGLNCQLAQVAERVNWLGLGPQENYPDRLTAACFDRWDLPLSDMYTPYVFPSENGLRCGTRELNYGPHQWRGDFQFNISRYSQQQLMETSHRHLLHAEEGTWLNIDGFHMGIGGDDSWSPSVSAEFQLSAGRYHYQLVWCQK", "assay": "beta-galactosidase enzyme inhibitors and activators, dose response, artefact control for CCR6 antagonist project, biochemical, E. coli enzyme, set 3 (AID 504712)", "assay_type": "functional"}, "[14]": {"assay": "growth suppression of PTEN-null colon cells, dose response, cell-based, HCT116 PTEN knockout (AID 1047);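 also: cells exposed to compound for 60 hours before readout; potency for loss of cell viability measured by luminescence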", "assay_type": "functional"}, "[15]": {"assay": "growth suppression of beta-catenin-knockout colon cells, dose response, cell-based, HCT116, human colon tumor (AID 1045);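 also: cells exposed to compound for 60 hours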", "assay_type": "functional"}, "[16]": {"molecular_target": "Induced myeloid leukemia cell differentiation protein Mcl-1 (Homo sapiens, UniProt Q07820)", "sequence (Q07820 whole entry)": "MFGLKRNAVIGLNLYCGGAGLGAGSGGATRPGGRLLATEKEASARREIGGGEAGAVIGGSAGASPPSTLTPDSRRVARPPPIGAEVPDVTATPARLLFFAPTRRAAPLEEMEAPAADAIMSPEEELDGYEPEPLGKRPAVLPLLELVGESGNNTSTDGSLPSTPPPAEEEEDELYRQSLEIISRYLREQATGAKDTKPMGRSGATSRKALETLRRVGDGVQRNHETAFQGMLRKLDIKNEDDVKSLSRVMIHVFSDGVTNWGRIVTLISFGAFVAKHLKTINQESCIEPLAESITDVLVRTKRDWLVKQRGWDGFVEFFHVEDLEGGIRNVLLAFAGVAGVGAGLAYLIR", "assay_type": "functional"}, "[17]": {"molecular_target": "DNA damage-inducible transcript 3 protein (Mus musculus, UniProt P35639)", "sequence (P35639 whole entry)": "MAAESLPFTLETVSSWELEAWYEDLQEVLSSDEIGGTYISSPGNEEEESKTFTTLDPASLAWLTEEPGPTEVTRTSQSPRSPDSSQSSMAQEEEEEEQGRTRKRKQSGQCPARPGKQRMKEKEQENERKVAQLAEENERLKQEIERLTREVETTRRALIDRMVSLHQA", "assay_type": "functional, Cricetulus griseus"}, "[18]": {"molecular_target": "T6, Small ubiquitin-related modifier 1 (Homo sapiens, UniProt P63165)", "T6 sequence (P63165 whole entry)": "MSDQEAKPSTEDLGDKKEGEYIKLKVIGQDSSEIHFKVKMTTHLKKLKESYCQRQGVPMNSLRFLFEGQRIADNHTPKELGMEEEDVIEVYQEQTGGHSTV", "assay": "inhibitors of SUMO1 peptide binding, dose response, biochemical, fluorescence polarization, uHTS hits (AID 624382)", "assay_type": "functional", "settings": "read-out: IC50_Mean"}, "[19]": {"molecular_target": "T6, Small ubiquitin-related modifier 1", "assay": "inhibitors of SUMO1 partner interactions, dose response, biochemical, FRET (AID 624383)", "assay_type": "functional", "settings": "read-out: IC50_Mean"}},
  "note": "Activity calls are given as the source filed them.",
  "data": [
    {"smiles": "Clc1ccccc1CSc1nnc(-c2ccncc2)o1", "values": [
      {"measurement": "EC50", "setting": "[1]", "result": "> 100 µM (inactive)"},
      {"measurement": "AC50", "setting": "Cytochrome P450 2C19", "result": "0.126 µM (inconclusive)"},
      {"measurement": "AC50", "setting": "Cytochrome P450 3A4", "result": "20 µM (inconclusive)"}
    ]},
    {"smiles": "O=c1c2ccccc2nc2cc(O)c(-c3ccccc3)nn12", "values": [
      {"measurement": "CC50", "setting": "[2]", "result": "> 40 µM (active)"},
      {"measurement": "CC50", "setting": "[3]", "result": "15.4 µM (active)"},
      {"measurement": "IC50", "setting": "cells", "result": "4.34 µM (active)"}
    ]},
    {"smiles": "COc1cccc(/C=C2\\SC(=S)N(CCCC(=O)Nc3ccc(C(=O)O)cc3)C2=O)c1", "values": [
      {"measurement": "IC50", "setting": "[4]", "result": "< 0.5 µM (active)"},
      {"measurement": "IC50", "setting": "[5]", "result": "0.691 µM (active)"},
      {"measurement": "IC50", "setting": "[6]", "result": "32.3 µM (active)"},
      {"measurement": "IC50", "setting": "[7]", "result": "> 100 µM (inactive)"},
      {"measurement": "IC50", "setting": "[8]", "result": "8.56 µM (active)"},
      {"measurement": "IC50", "setting": "[9]", "result": "> 100 µM (inactive)"},
      {"measurement": "IC50", "setting": "[10]", "result": "> 32 µM (inactive)"}
    ]},
    {"smiles": "N#C/C(=C\\c1ccc(-c2ccc([N+](=O)[O-])cc2)o1)C(=O)Nc1nc(-c2cccs2)cs1", "values": [
      {"measurement": "IC50", "setting": "SUMO-activating enzyme [11]", "result": "18.2 µM (active)"},
      {"measurement": "IC50", "setting": "SUMO-activating enzyme [12]", "result": "8.52 µM (active)"},
      {"measurement": "IC50", "setting": "[13]", "result": "> 66.6 µM (inactive)"},
      {"measurement": "IC50", "setting": "Beta-galactosidase", "result": "> 66.6 µM (inactive)"}
    ]},
    {"smiles": "Fc1cc(F)c2nc(Nc3nc4cc5c(cc4s3)OCO5)sc2c1", "values": [
      {"measurement": "EC50", "setting": "[14]", "result": "18.6 µM (active)"},
      {"measurement": "EC50", "setting": "[15]", "result": "17.3 µM (active)"},
      {"measurement": "IC50", "setting": "[16]", "result": "1.12 µM (active)"},
      {"measurement": "Absolute IC50 (CHOP)", "setting": "[17]", "result": 10, "unit": "µM"},
      {"measurement": "IC50", "setting": "[18]", "result": "> 66.6 µM (inactive)"},
      {"measurement": "IC50", "setting": "[19]", "result": "1.53 µM (active)"}
    ]}
  ]
}
